Laboratory results: the supplement of paper PMC10307832

Experiments:
Assay in all cases: relative viability (nuclei count vs DMSO), 5 days (fraction); higher = more cells survive
[1] = compound: C1CC(C1)(C(=O)O)C(=O)O.[NH2-].[NH2-].[Pt+2] [Carboplatin] + C[C@]1(O)C[C@@H](c2nc(-c3ccc4ccc(-c5ccccc5)nc4c3)c3c(N)nccn32)C1 [Linsitinib] (partner 1 µM)
How it was run: (§1)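 Lung cancer cell lines in 1536-well plates were dosed by pin tool the day after seeding, either with one drug alone or with a fixed anchor-drug dose plus five library-drug doses (not always all listed) in √10 steps. After 5 days, cells were fixed and their nuclei stained in one step (final 0.05% Triton X-100, 1% formaldehyde, 1 ug/ml Hoechst), then counted on 4× images. Relative viability is the nuclei count in treated wells divided by that in vehicle wells. Values are medians of duplicate plates.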

[2] = compound: C1CC(C1)(C(=O)O)C(=O)O.[NH2-].[NH2-].[Pt+2] [Carboplatin] + O=C(c1cc(Cc2n[nH]c(=O)c3ccccc23)ccc1F)N1CCN(C(=O)C2CC2)CC1 [Olaparib] (partner 8 µM)
How it was run: as §1

[3] = compound: CC[C@H](C)N1C=C(C2=C(C=C(C=C21)C3=CN=C(C=C3)N4CCNCC4)C(=O)NCC5=C(C=C(NC5=O)C)C)C [GSK126] + Cc1nc(NC(=O)N2CCC[C@H]2C(N)=O)sc1-c1ccnc(C(C)(C)C(F)(F)F)c1 [Alpelisib] (partner 2 µM)
How it was run: as §1

[4] = compound: CC[C@H](C)N1C=C(C2=C(C=C(C=C21)C3=CN=C(C=C3)N4CCNCC4)C(=O)NCC5=C(C=C(NC5=O)C)C)C [GSK126] + Cc1nc(Nc2ncc(C(=O)Nc3c(C)cccc3Cl)s2)cc(N2CCN(CCO)CC2)n1 [Dasatinib] (partner 0.075 µM)
How it was run: as §1

| Cell Line | relative viability ([1]; first compound 0.08 µM) | relative viability ([1]; first compound 0.253 µM) | relative viability ([1]; first compound 0.8 µM) | relative viability ([1]; first compound 2.53 µM) | relative viability ([1]; first compound 8 µM) | relative viability ([2]; first compound 0.08 µM) | relative viability ([2]; first compound 0.253 µM) | relative viability ([2]; first compound 0.8 µM) | relative viability ([2]; first compound 2.53 µM) | relative viability ([2]; first compound 8 µM) | relative viability ([3]; first compound 0.08 µM) | relative viability ([3]; first compound 0.253 µM) | relative viability ([3]; first compound 0.8 µM) | relative viability ([3]; first compound 2.53 µM) | relative viability ([3]; first compound 8 µM) | relative viability ([4]; first compound 0.08 µM) | relative viability ([4]; first compound 0.253 µM) | relative viability ([4]; first compound 0.8 µM) | relative viability ([4]; first compound 2.53 µM) | relative viability ([4]; first compound 8 µM) |
| --- | --- | --- | --- | --- | --- | --- | --- | --- | --- | --- | --- | --- | --- | --- | --- | --- | --- | --- | --- | --- |
| NCI-H661 | 0.555 | 0.705 | 0.529 | 0.44 | 0.541 | 0.73 | 0.794 | 0.675 | 0.737 | 0.729 | 0.802 | 0.638 | 0.657 | 0.478 | 0.58 | 1.11 | 0.745 | 0.755 | 0.664 | 0.653 |
| NCI-H727 | 0.456 | 0.298 | 0.314 | 0.347 | 0.277 | 0.75 | 0.586 | 0.862 | 0.646 | 0.667 | 0.649 | 0.493 | 0.643 | 0.636 | 0.704 | 0.353 | 0.36 | 0.39 | 0.416 | 0.348 |
| NCI-H1734 | 0.823 | 0.904 | 0.909 | 0.876 | 0.851 | 0.598 | 0.623 | 0.522 | 0.574 | 0.423 | 0.789 | 0.605 | 0.654 | 0.698 | 0.682 | 0.573 | 0.505 | 0.463 | 0.467 | 0.449 |
| EMC-BAC-2 | 0.84 | 0.799 | 0.801 | 0.804 | 0.717 | 0.483 | 0.484 | 0.447 | 0.461 | 0.385 | 0.785 | 0.77 | 0.718 | 0.731 | 0.765 | 0.346 | 0.339 | 0.176 | 0.259 | 0.332 |
| EKVX | 1.13 | 1.07 | 0.849 | 0.847 | 0.893 | 0.856 | 0.81 | 0.872 | 0.734 | 0.671 | 0.961 | 0.92 | 0.819 | 0.813 | 0.746 | 0.523 | 0.309 | 0.543 | 0.589 | 0.508 |
| NCI-H596 | 1.15 | 1.09 | 0.904 | 0.809 | 0.771 | 0.6 | 0.617 | 0.623 | 0.601 | 0.585 | 0.681 | 0.445 | 0.397 | 0.51 | 0.556 | 0.692 | 0.537 | 0.633 | 0.887 | 0.594 |
| NCI-H358 | 0.826 | 0.806 | 0.796 | 0.772 | 0.751 | 0.713 | 0.636 | 0.593 | 0.498 | 0.43 | 1.08 | 1.07 | 0.857 | 0.935 | 0.904 | 0.202 | 0.167 | 0.173 | 0.15 | 0.175 |
| LOU-NH91 | 1.11 | 0.9 | 0.924 | 0.946 | 0.891 | 0.955 | 0.973 | 0.873 | 0.831 | 0.844 | 0.778 | 0.694 | 0.696 | 0.721 | 0.722 | 0.552 | 0.609 | 0.538 | 0.594 | 0.567 |
| NCI-H1437 | 1.06 | 1.02 | 0.95 | 0.859 | 0.876 | 0.646 | 0.675 | 0.578 | 0.623 | 0.594 | 1.07 | 0.934 | 0.869 | 0.824 | 0.993 | 0.392 | 0.368 | 0.416 | 0.441 | 0.349 |
| H3255 | 0.971 | 0.941 | 0.949 | 0.87 | 0.722 | 0.567 | 0.643 | 0.522 | 0.531 | 0.434 | 0.716 | 0.679 | 0.847 | 0.643 | 0.738 | 0.396 | 0.383 | 0.393 | 0.419 | 0.346 |
| NCI-H1666 | 0.823 | 0.879 | 0.747 | 0.794 | 0.458 | 0.741 | 0.704 | 0.707 | 0.672 | 0.657 | 1 | 0.964 | 1.05 | 0.962 | 1.12 | 0.675 | 0.586 | 0.579 | 0.616 | 0.656 |
| NCI-H2228 | 0.601 | 1.08 | 0.719 | 0.653 | 0.641 | 0.927 | 0.514 | 0.553 | 0.645 | 0.436 | 0.848 | 0.52 | 0.691 | 0.99 | 0.783 | 0.597 | 0.513 | 0.522 | 0.562 | 0.493 |
| HCC-78 | 0.509 | 0.461 | 0.416 | 0.46 | 0.511 | 0.888 | 0.851 | 0.574 | 0.684 | 0.726 | 0.413 | 0.304 | 0.287 | 0.301 | 0.372 | 0.423 | 0.51 | 0.357 | 0.355 | 0.367 |
| CAL-12T | 0.803 | 0.913 | 0.838 | 0.809 | 0.797 | 0.727 | 0.783 | 0.673 | 0.741 | 0.648 | 1.31 | 1.3 | 1.08 | 1.22 | 1.39 | 0.582 | 0.515 | 0.531 | 0.512 | 0.45 |
| SK-LU-1 | 1.23 | 1.02 | 1.11 | 1.06 | 0.624 | 0.517 | 0.483 | 0.387 | 0.425 | 0.356 | 1.01 | 1.11 | 1.2 | 1.18 | 1.03 | 0.213 | 0.231 | 0.189 | 0.199 | 0.173 |
| LU99A | 0.621 | 0.583 | 0.508 | 0.464 | 0.417 | 0.296 | 0.272 | 0.253 | 0.236 | 0.214 | 0.554 | 0.512 | 0.52 | 0.572 | 0.594 | 0.648 | 0.467 | 0.718 | 0.526 | 0.568 |
